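Cultured in 96-well plates, cells were exposed to test compound for 48 hours across five concentrations. TGI marks complete inhibition of growth.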
What was measured:
Assay in all cases: NCI-60 cell line screen, 48 h
OVCAR-4 ovarian = system: OVCAR-4 ovarian
SK-MEL-2 melanoma = system: SK-MEL-2 melanoma
COLO 205 colon = system: COLO 205 colon
OVCAR-8 ovarian = system: OVCAR-8 ovarian
HCT-15 colon = system: HCT-15 colon
XF 498 CNS = system: XF 498 CNS
UACC-62 melanoma = system: UACC-62 melanoma
ACHN renal = system: ACHN renal
SK-MEL-28 melanoma = system: SK-MEL-28 melanoma
SF-268 CNS = system: SF-268 CNS
RXF 393 renal = system: RXF 393 renal
NCI-H226 lung = system: NCI-H226 lung
CAKI-1 renal = system: CAKI-1 renal
U251 CNS = system: U251 CNS
LXFL 529 NSCLC = system: LXFL 529 NSCLC
HCT-116 colon = system: HCT-116 colon
DMS 114 small cell lung = system: DMS 114 small cell lung
SN12C renal = system: SN12C renal
SR leukemia = system: SR leukemia
MALME-3M melanoma = system: MALME-3M melanoma
SK-OV-3 ovarian = system: SK-OV-3 ovarian
OVCAR-5 ovarian = system: OVCAR-5 ovarian
NCI-H460 lung = system: NCI-H460 lung
MOLT-4 leukemia = system: MOLT-4 leukemia
HOP-18 NSCLC = system: HOP-18 NSCLC
HT29 colon = system: HT29 colon
SW-620 colon = system: SW-620 colon
HCC-2998 colon = system: HCC-2998 colon
NCI-H23 lung = system: NCI-H23 lung
EKVX NSCLC = system: EKVX NSCLC
786-0 renal = system: 786-0 renal
UO-31 renal = system: UO-31 renal
RPMI-8226 leukemia = system: RPMI-8226 leukemia
KM12 colon = system: KM12 colon
HOP-62 NSCLC = system: HOP-62 NSCLC
RXF-631 renal = system: RXF-631 renal
SK-MEL-5 melanoma = system: SK-MEL-5 melanoma
SNB-75 CNS = system: SNB-75 CNS
KM20L2 colon = system: KM20L2 colon
CCRF-CEM leukemia = system: CCRF-CEM leukemia
K-562 leukemia = system: K-562 leukemia
HOP-92 NSCLC = system: HOP-92 NSCLC
SF-539 CNS = system: SF-539 CNS
A498 renal = system: A498 renal
SF-295 CNS = system: SF-295 CNS
IGROV1 ovarian = system: IGROV1 ovarian
HL-60(TB) leukemia = system: HL-60(TB) leukemia
A549 NSCLC = system: A549 NSCLC
M14 melanoma = system: M14 melanoma
DLD-1 colon = system: DLD-1 colon
LOX IMVI melanoma = system: LOX IMVI melanoma
OVCAR-3 ovarian = system: OVCAR-3 ovarian
M19-MEL melanoma = system: M19-MEL melanoma
DMS 273 small cell lung = system: DMS 273 small cell lung
UACC-257 melanoma = system: UACC-257 melanoma
TK-10 renal = system: TK-10 renal
NCI-H522 lung = system: NCI-H522 lung
SNB-78 CNS = system: SNB-78 CNS
SNB-19 CNS = system: SNB-19 CNS

With `N#CC1=C(c2ccccc2)C(O)(c2ccccc2)NC1=O` (stereo not given) the TGI (OVCAR-4 ovarian) was > 100 µM, the TGI (SK-MEL-2 melanoma) was > 100 µM and the TGI (COLO 205 colon) was > 100 µM. The TGI (OVCAR-8 ovarian) was > 100 µM, the TGI (HCT-15 colon) was > 100 µM and the TGI (XF 498 CNS) was > 100 µM. The TGI (UACC-62 melanoma) was > 100 µM, the TGI (ACHN renal) was > 100 µM and the TGI (SK-MEL-28 melanoma) was > 100 µM. For the same molecule, the TGI (SF-268 CNS) was > 100 µM, the TGI (RXF 393 renal) was > 100 µM and the TGI (NCI-H226 lung) was > 100 µM. For the same molecule, the TGI (CAKI-1 renal) was > 100 µM, the TGI (U251 CNS) was > 100 µM and the TGI (LXFL 529 NSCLC) was > 100 µM. The TGI (HCT-116 colon) was > 100 µM, the TGI (DMS 114 small cell lung) was > 100 µM and the TGI (SN12C renal) was > 100 µM. For the same molecule, the TGI (SR leukemia) was > 100 µM, the TGI (MALME-3M melanoma) was 74 µM and the TGI (SK-OV-3 ovarian) was 88.9 µM. The TGI (OVCAR-5 ovarian) was 90.1 µM, the TGI (NCI-H460 lung) was > 100 µM and the TGI (MOLT-4 leukemia) was > 100 µM. The TGI (HOP-18 NSCLC) was > 100 µM, the TGI (HT29 colon) was > 100 µM and the TGI (SW-620 colon) was > 100 µM. The TGI (HCC-2998 colon) was > 100 µM, the TGI (NCI-H23 lung) was > 100 µM and the TGI (EKVX NSCLC) was > 100 µM. The TGI (786-0 renal) was > 100 µM, the TGI (UO-31 renal) was > 100 µM and the TGI (RPMI-8226 leukemia) was > 100 µM. For the same molecule, the TGI (KM12 colon) was > 100 µM, the TGI (HOP-62 NSCLC) was > 100 µM and the TGI (RXF-631 renal) was > 100 µM. The TGI (SK-MEL-5 melanoma) was > 100 µM, the TGI (SNB-75 CNS) was > 100 µM and the TGI (KM20L2 colon) was > 100 µM. The TGI (CCRF-CEM leukemia) was > 100 µM, the TGI (K-562 leukemia) was > 100 µM and the TGI (HOP-92 NSCLC) was 75.2 µM. For the same molecule, the TGI (SF-539 CNS) was 63.3 µM, the TGI (A498 renal) was 60.6 µM and the TGI (SF-295 CNS) was > 100 µM. For the same molecule, the TGI (IGROV1 ovarian) was > 100 µM, the TGI (HL-60(TB) leukemia) was > 100 µM and the TGI (A549 NSCLC) was > 100 µM. The TGI (M14 melanoma) was > 100 µM, the TGI (DLD-1 colon) was > 100 µM and the TGI (LOX IMVI melanoma) was > 100 µM. For the same molecule, the TGI (OVCAR-3 ovarian) was > 100 µM, the TGI (M19-MEL melanoma) was > 100 µM and the TGI (DMS 273 small cell lung) was > 100 µM. For the same molecule, the TGI (UACC-257 melanoma) was > 100 µM and the TGI (TK-10 renal) was > 100 µM.
For `COc1cc2c(cc1O)C(C)Cc1cc3c(cc1N(C)CC2)OCO3` (stereo not given), the TGI (OVCAR-4 ovarian) was > 65.2 µM, the TGI (SK-MEL-2 melanoma) was 38.1 µM and the TGI (COLO 205 colon) was > 58.8 µM. For the same molecule, the TGI (OVCAR-8 ovarian) was 37.5 µM, the TGI (HCT-15 colon) was 42.7 µM and the TGI (XF 498 CNS) was 20.4 µM. It also gave a TGI (UACC-62 melanoma) of 12 µM, a TGI (ACHN renal) of 74.1 µM and a TGI (SK-MEL-28 melanoma) of 45.8 µM. It also gave a TGI (SF-268 CNS) of 36.2 µM, a TGI (RXF 393 renal) of 9.48 µM and a TGI (NCI-H226 lung) of 19.3 µM. For the same molecule, the TGI (CAKI-1 renal) was > 74.3 µM, the TGI (U251 CNS) was 14.8 µM and the TGI (LXFL 529 NSCLC) was > 95.6 µM. The TGI (HCT-116 colon) was > 35.2 µM, the TGI (DMS 114 small cell lung) was > 21.9 µM and the TGI (SN12C renal) was 18.3 µM. The TGI (SR leukemia) was > 100 µM, the TGI (MALME-3M melanoma) was 20.1 µM and the TGI (SK-OV-3 ovarian) was 22.8 µM. For the same molecule, the TGI (OVCAR-5 ovarian) was 54.9 µM, the TGI (NCI-H460 lung) was 37.7 µM and the TGI (MOLT-4 leukemia) was 36.5 µM. It also gave a TGI (NCI-H522 lung) of 4.94 µM, a TGI (HOP-18 NSCLC) of 90.9 µM and a TGI (HT29 colon) of 29.7 µM. The TGI (SW-620 colon) was > 56.4 µM, the TGI (HCC-2998 colon) was 19.5 µM and the TGI (NCI-H23 lung) was 20.3 µM. The TGI (SNB-78 CNS) was 42.3 µM, the TGI (EKVX NSCLC) was > 34.9 µM and the TGI (786-0 renal) was 17.4 µM. For the same molecule, the TGI (UO-31 renal) was 37.8 µM, the TGI (RPMI-8226 leukemia) was > 33.9 µM and the TGI (KM12 colon) was 17.8 µM. The TGI (HOP-62 NSCLC) was 36.8 µM, the TGI (RXF-631 renal) was > 59 µM and the TGI (SK-MEL-5 melanoma) was 10 µM. For the same molecule, the TGI (SNB-75 CNS) was 9 µM, the TGI (KM20L2 colon) was 26.9 µM and the TGI (CCRF-CEM leukemia) was > 46.8 µM. For the same molecule, the TGI (K-562 leukemia) was > 27.9 µM, the TGI (HOP-92 NSCLC) was 18 µM and the TGI (SF-539 CNS) was 8.8 µM. It also gave a TGI (A498 renal) of 39.5 µM, a TGI (SF-295 CNS) of 10.3 µM and a TGI (IGROV1 ovarian) of 73.3 µM. The TGI (HL-60(TB) leukemia) was > 58.8 µM, the TGI (A549 NSCLC) was 32.6 µM and the TGI (M14 melanoma) was 19 µM. The TGI (SNB-19 CNS) was > 87.4 µM, the TGI (DLD-1 colon) was 42.7 µM and the TGI (LOX IMVI melanoma) was 18.1 µM. For the same molecule, the TGI (OVCAR-3 ovarian) was 8.83 µM, the TGI (M19-MEL melanoma) was > 40.8 µM and the TGI (DMS 273 small cell lung) was 13 µM. The TGI (UACC-257 melanoma) was > 47.2 µM and the TGI (TK-10 renal) was > 91.4 µM.

Reference: PubChem BioAssay (NCI)
